How the values were obtained:
Format in all cases: in vivo
Spodoptera litura = test: Pesticidal test against Spodoptera litura (cabbage leaf dip); settings: foliar, 144 h, concentration 1 ppm, 2-stage larvae, examined after 6 days, 25° C., read-out: pesticidal rate
Experimental: (§1) Pesticidal Test against Spodoptera litura A piece of a cabbage leaf was immersed for 30 seconds in a chemical solution in which a test compound had been prepared at a predetermined concentration, and air-dried, and then put into a 7 cm polyethylene cup having a filter paper laid on the bottom thereof, and 2-stage larvae of Spodoptera litura were released. They were left to stand in a thermostatic chamber at 25° C., and the numbers of the living pests and the dead pests were examined after 6 days. The test was carried out with five larvae per group in two replicates. Further, the following compound (A) disclosed in the pamphlet of International Publication WO 2005/073165 was used as a comparative compound.

Plutella xylostella = test: Pesticidal test against Plutella xylostella (cabbage leaf dip); settings: foliar, 144 h, 2-stage larvae, examined after 6 days, 25° C., read-out: pesticidal rate; for pest or weed control at 1 ppm: concentration 1 ppm; for pest or weed control at 10 ppm: concentration 10 ppm
Experimental: as §1, with “Plutella xylostella” for “Spodoptera litura”, “above” for “following”, “(A)” for “(A) disclosed in the pamphlet of International Publication WO 2005/073165”

Laodelphax striatellus = test: Pesticidal test against Laodelphax striatellus (rice seedling spray); settings: 144 h, concentration 100 ppm, 3-stage larvae, examined after 6 days, 25° C., read-out: pesticidal rate
Experimental: Pesticidal Test against Laodelphax striatellus
2.5 ml of an acetone solution in which a test compound had been prepared at a predetermined concentration was sprayed on rice seedlings, air-dried, and then put into a glass tube having a diameter of 3 cm and a height of 13 cm, having water therein, and 3-stage larvae of Laodelphax striatellus were released and the tube was capped. They were left to stand in a thermostatic chamber at 25° C., and the numbers of the living pests and the dead pests were examined after 6 days. The test was carried out with ten larvae per group in two replicates.

N#Cc1ccc(C(=O)Nc2cccc(C(=O)Nc3c(I)cc(C(F)(C(F)(F)F)C(F)(F)C(F)(F)F)cc3I)c2)cc1 (stereo not drawn) [6-79, 3-(4-cyanobenzamide)-N-(2,6-diiodo-4-(perfluorobutan-2-yl)phenyl)benzamide]
≥ 70%: pest or weed control at 1 ppm (Spodoptera litura) | pest or weed control at 1 ppm (Plutella xylostella) | pest or weed control at 100 ppm (Laodelphax striatellus)

O=C(Nc1c(Cl)cc(C(F)(C(F)(F)F)C(F)(F)F)cc1C(F)(F)F)c1cccc(NC(=O)c2cccnc2Cl)c1 [6-147]
≥ 70%: pest or weed control at 1 ppm (Spodoptera litura) | pest or weed control at 1 ppm (Plutella xylostella) | pest or weed control at 100 ppm (Laodelphax striatellus)

O=C(Nc1cccc(C(=O)Nc2c(Br)cc(C(F)(C(F)(F)F)C(F)(F)F)cc2C(F)(F)F)c1)c1ccccc1 [6-268]
≥ 70%: pest or weed control at 1 ppm (Spodoptera litura) | pest or weed control at 1 ppm (Plutella xylostella) | pest or weed control at 100 ppm (Laodelphax striatellus)

O=C(Nc1c(Br)cc(C(F)(C(F)(F)F)C(F)(F)F)cc1C(F)(F)F)c1cccc(NC(=O)c2ccccc2F)c1 [6-269]
≥ 70%: pest or weed control at 1 ppm (Spodoptera litura) | pest or weed control at 10 ppm (Plutella xylostella) | pest or weed control at 100 ppm (Laodelphax striatellus)

O=C(Nc1cccc(C(=O)Nc2c(Br)cc(C(F)(C(F)(F)F)C(F)(F)F)cc2C(F)(F)F)c1)c1cccc(F)c1 [6-270]
≥ 70%: pest or weed control at 1 ppm (Spodoptera litura) | pest or weed control at 1 ppm (Plutella xylostella) | pest or weed control at 100 ppm (Laodelphax striatellus)

O=C(Nc1c(Br)cc(C(F)(C(F)(F)F)C(F)(F)F)cc1C(F)(F)F)c1cccc(NC(=O)c2c(F)cccc2F)c1 [6-290]
≥ 70%: pest or weed control at 1 ppm (Spodoptera litura) | pest or weed control at 1 ppm (Plutella xylostella) | pest or weed control at 100 ppm (Laodelphax striatellus)

O=C(Nc1c(Br)cc(C(F)(C(F)(F)F)C(F)(F)F)cc1C(F)(F)F)c1cccc(NC(=O)c2cccnc2Cl)c1 [6-304]
≥ 70%: pest or weed control at 1 ppm (Spodoptera litura) | pest or weed control at 1 ppm (Plutella xylostella) | pest or weed control at 100 ppm (Laodelphax striatellus)

O=C(Nc1c(Br)cc(C(F)(C(F)(F)F)C(F)(F)F)cc1C(F)(F)F)c1cccc(NC(=O)c2cccnc2I)c1 [6-306]
≥ 70%: pest or weed control at 1 ppm (Spodoptera litura) | pest or weed control at 1 ppm (Plutella xylostella) | pest or weed control at 100 ppm (Laodelphax striatellus)

O=C(Nc1cccc(C(=O)Nc2c(Br)cc(C(F)(C(F)(F)F)C(F)(F)F)cc2C(F)(F)F)c1)c1ccc(Cl)nc1 [6-311]
≥ 70%: pest or weed control at 1 ppm (Spodoptera litura) | pest or weed control at 10 ppm (Plutella xylostella) | pest or weed control at 100 ppm (Laodelphax striatellus)

O=C(Nc1c(I)cc(C(F)(C(F)(F)F)C(F)(F)F)cc1C(F)(F)F)c1cccc(NC(=O)c2ccccc2F)c1 [6-425]
≥ 70%: pest or weed control at 1 ppm (Spodoptera litura) | pest or weed control at 1 ppm (Plutella xylostella) | pest or weed control at 100 ppm (Laodelphax striatellus)

N#Cc1cccc(C(=O)Nc2cccc(C(=O)Nc3c(I)cc(C(F)(C(F)(F)F)C(F)(F)F)cc3C(F)(F)F)c2)c1 [6-444]
≥ 70%: pest or weed control at 1 ppm (Spodoptera litura) | pest or weed control at 1 ppm (Plutella xylostella) | pest or weed control at 100 ppm (Laodelphax striatellus)

N#Cc1ccc(C(=O)Nc2cccc(C(=O)Nc3c(I)cc(C(F)(C(F)(F)F)C(F)(F)F)cc3C(F)(F)F)c2)cc1 [6-445]
≥ 70%: pest or weed control at 1 ppm (Spodoptera litura) | pest or weed control at 1 ppm (Plutella xylostella) | pest or weed control at 100 ppm (Laodelphax striatellus)

O=C(Nc1c(I)cc(C(F)(C(F)(F)F)C(F)(F)F)cc1C(F)(F)F)c1cccc(NC(=O)c2cccnc2Br)c1 [6-461]
≥ 70%: pest or weed control at 1 ppm (Spodoptera litura) | pest or weed control at 1 ppm (Plutella xylostella) | pest or weed control at 100 ppm (Laodelphax striatellus)

O=C(Nc1cccc(C(=O)Nc2c(Br)cc(C(F)(C(F)(F)F)C(F)(F)F)cc2Br)c1F)c1cccnc1Cl [6-1140, 2-chloro-N-(3-(2,6-dibromo-4-(perfluoropropan-2-yl)phenylcarbamoyl)-2-fluorophenyl)nicotinamide]
≥ 70%: pest or weed control at 1 ppm (Spodoptera litura) | pest or weed control at 1 ppm (Plutella xylostella) | pest or weed control at 100 ppm (Laodelphax striatellus)

O=C(Nc1cccc(C(=O)Nc2c(Br)cc(C(F)(C(F)(F)F)C(F)(F)C(F)(F)F)cc2Br)c1F)c1ccccc1F (stereo not drawn) [6-1183]
≥ 70%: pest or weed control at 1 ppm (Spodoptera litura) | pest or weed control at 1 ppm (Plutella xylostella) | pest or weed control at 100 ppm (Laodelphax striatellus)

O=C(Nc1cccc(C(=O)Nc2c(Br)cc(C(F)(C(F)(F)F)C(F)(F)C(F)(F)F)cc2Br)c1F)c1ccc(F)cc1 (stereo not drawn) [6-1185]
≥ 70%: pest or weed control at 1 ppm (Spodoptera litura) | pest or weed control at 1 ppm (Plutella xylostella) | pest or weed control at 100 ppm (Laodelphax striatellus)

N#Cc1ccc(C(=O)Nc2cccc(C(=O)Nc3c(Br)cc(C(F)(C(F)(F)F)C(F)(F)C(F)(F)F)cc3Br)c2F)cc1 (stereo not drawn) [6-1203]
≥ 70%: pest or weed control at 1 ppm (Spodoptera litura) | pest or weed control at 1 ppm (Plutella xylostella) | pest or weed control at 100 ppm (Laodelphax striatellus)

O=C(Nc1cccc(C(=O)Nc2c(Br)cc(C(F)(C(F)(F)F)C(F)(F)C(F)(F)F)cc2Br)c1F)c1ccc(Cl)nc1 (stereo not drawn) [6-1225]
≥ 70%: pest or weed control at 1 ppm (Spodoptera litura) | pest or weed control at 1 ppm (Plutella xylostella) | pest or weed control at 100 ppm (Laodelphax striatellus)

O=C(Nc1cccc(C(=O)Nc2c(I)cc(C(F)(C(F)(F)F)C(F)(F)F)cc2I)c1F)c1ccccc1F [6-1261]
≥ 70%: pest or weed control at 1 ppm (Spodoptera litura) | pest or weed control at 1 ppm (Plutella xylostella) | pest or weed control at 100 ppm (Laodelphax striatellus)

O=C(Nc1c(I)cc(C(F)(C(F)(F)F)C(F)(F)F)cc1I)c1cccc(NC(=O)c2c(F)cccc2F)c1F [6-1282]
≥ 70%: pest or weed control at 1 ppm (Spodoptera litura) | pest or weed control at 1 ppm (Plutella xylostella) | pest or weed control at 100 ppm (Laodelphax striatellus)

O=C(Nc1cccc(C(=O)Nc2c(I)cc(C(F)(C(F)(F)F)C(F)(F)F)cc2I)c1F)c1ccc(Cl)nc1 [6-1303]
≥ 70%: pest or weed control at 1 ppm (Spodoptera litura) | pest or weed control at 1 ppm (Plutella xylostella) | pest or weed control at 100 ppm (Laodelphax striatellus)

O=C(Nc1cccc(C(=O)Nc2c(I)cc(C(F)(C(F)(F)F)C(F)(F)C(F)(F)F)cc2I)c1F)c1ccccc1F (stereo not drawn) [6-1339]
≥ 70%: pest or weed control at 1 ppm (Spodoptera litura) | pest or weed control at 1 ppm (Plutella xylostella) | pest or weed control at 100 ppm (Laodelphax striatellus)

O=C(Nc1cccc(C(=O)Nc2c(I)cc(C(F)(C(F)(F)F)C(F)(F)C(F)(F)F)cc2I)c1F)c1cccc(F)c1 (stereo not drawn) [6-1340]
≥ 70%: pest or weed control at 1 ppm (Spodoptera litura) | pest or weed control at 1 ppm (Plutella xylostella) | pest or weed control at 100 ppm (Laodelphax striatellus)

O=C(Nc1cccc(C(=O)Nc2c(I)cc(C(F)(C(F)(F)F)C(F)(F)C(F)(F)F)cc2I)c1F)c1ccc(Cl)nc1 (stereo not drawn) [6-1381]
≥ 70%: pest or weed control at 1 ppm (Spodoptera litura) | pest or weed control at 1 ppm (Plutella xylostella) | pest or weed control at 100 ppm (Laodelphax striatellus)

O=C(Nc1cccc(C(=O)Nc2c(Br)cc(C(F)(C(F)(F)F)C(F)(F)C(F)(F)F)cc2C(F)(F)F)c1F)c1ccccc1F (stereo not drawn) [6-1653]
≥ 70%: pest or weed control at 1 ppm (Spodoptera litura) | pest or weed control at 1 ppm (Plutella xylostella) | pest or weed control at 100 ppm (Laodelphax striatellus)

O=C(Nc1cccc(C(=O)Nc2c(I)cc(C(F)(C(F)(F)F)C(F)(F)F)cc2C(F)(F)F)c1F)c1ccc(Cl)cc1Cl [6-1754]
≥ 70%: pest or weed control at 1 ppm (Spodoptera litura) | pest or weed control at 1 ppm (Plutella xylostella) | pest or weed control at 100 ppm (Laodelphax striatellus)

O=C(Nc1cccc(C(=O)Nc2c(I)cc(C(F)(C(F)(F)F)C(F)(F)F)cc2C(F)(F)F)c1F)c1cccnc1Cl [6-1766]
≥ 70%: pest or weed control at 1 ppm (Spodoptera litura) | pest or weed control at 1 ppm (Plutella xylostella) | pest or weed control at 100 ppm (Laodelphax striatellus)

O=C(Nc1cc(C(=O)Nc2c(Br)cc(C(F)(C(F)(F)F)C(F)(F)F)cc2C(F)(F)F)ccc1F)c1ccccc1 [6-3348, 3-benzamide-N-(2-bromo-4-(perfluoropropan-2-yl)-6-(trifluoromethyl)phenyl)-4-fluorobenzamide]
≥ 70%: pest or weed control at 1 ppm (Spodoptera litura) | pest or weed control at 1 ppm (Plutella xylostella) | pest or weed control at 100 ppm (Laodelphax striatellus)

O=C(Nc1c(Br)cc(C(F)(C(F)(F)F)C(F)(F)F)cc1C(F)(F)F)c1ccc(F)c(NC(=O)c2cccnc2Cl)c1 [6-3384]
≥ 70%: pest or weed control at 1 ppm (Spodoptera litura) | pest or weed control at 1 ppm (Plutella xylostella) | pest or weed control at 100 ppm (Laodelphax striatellus)

O=C(Nc1cccc(C(=O)Nc2c(I)cc(C(F)(C(F)(F)F)C(F)(F)C(F)(F)F)cc2I)c1)c1cccc(F)c1 (stereo not drawn) [6-5903]
≥ 70%: pest or weed control at 1 ppm (Spodoptera litura) | pest or weed control at 1 ppm (Plutella xylostella) | pest or weed control at 100 ppm (Laodelphax striatellus)

O=C(Nc1cccc(C(=O)Nc2c(I)cc(C(F)(C(F)(F)F)C(F)(F)C(F)(F)F)cc2I)c1)c1ccc(F)cc1 (stereo not drawn) [6-5904]
≥ 70%: pest or weed control at 1 ppm (Spodoptera litura) | pest or weed control at 1 ppm (Plutella xylostella) | pest or weed control at 100 ppm (Laodelphax striatellus)

— US8686044B2, “Amide derivative, pest control agent containing the amide derivative, and use of the amide derivative” (Mitsui Chemicals Agro, Inc., priority 2008, dated 2014)
